The values that follow come from PubChem BioAssay AID449760 (The Scripps Research Institute Molecular Screening Center, 2010).

Several values for one entry are separate records, joined by “and”; a condition that tells them apart may be missing. Identical values can stand only once. Activity calls are given as the source filed them. How the calls were made is not given here.

The subject of the test is NIH 3T3 STAT1-luciferase reporter, IFNg-stimulated, luminescence. Put plainly: STAT1 reporter activators, provider retest, late-stage follow-up, cell-based, luminescence, NIH 3T3, assay provider (AID 449760). Particulars: at 10 µM; hits give high values.

Take `O=C(/C=C/Nc1ccccc1F)c1ccc(Br)cc1`: the fold change vs IFNg is 0.87 (inactive).
For `CCN(CC)c1ccc2cc(C(=O)Nc3ccccn3)c(=O)oc2c1`, the fold change vs IFNg is 0.41 (inactive).
As for `COc1ccc(-c2csc(N3C(=O)CNC3=S)n2)cc1`, the figure is 1.19 (inactive); as for `N#C/C(=C\c1ccc(N2CCOCC2)o1)c1nc2ccccc2[nH]1`, 0.94 (inactive).
Consider `O=C(Nc1nc2ccccc2s1)c1cc2ccccc2s1`, for which the fold change vs IFNg is 1.02 (inactive).
Regarding `COc1ccc(-c2cc(C)nc3c(-c4ccccc4)cnn23)cc1`, the fold change vs IFNg is 0.36 (inactive) and 0.19 (inactive).
On to `Cc1ccc(C(=O)Nc2nc3ccccc3s2)s1`, for which the fold change vs IFNg is 1.22 (inactive).
Next, `Cc1cc(-c2ccc(F)cc2)n2ncc(-c3ccccc3)c2n1`: 0.09 (inactive); `COc1ccc2[nH]c3c(c2c1)CCn1c-3nc2ccccc2c1=O`: 0.94 (inactive); `CCOC(=O)/C(C#N)=C/c1cc(C)n(-c2ccccc2)c1C`: 0.028 (inactive).
As for `CC(=O)NC(=S)Nc1sc2c(c1C#N)CCCCC2`, the figure is 0.45 (inactive); as for `Cc1nnc(SCC(=O)Nc2ccc(-c3nc4ccccc4s3)cc2)s1`, 1 (inactive).
